# Experiments:
# Format in all cases: cell-based
# Interferon-α = assay: Induction of Interferon-α using cryopreserved human PBMCs; conditions: PBMC, 24 h incubation, normalized to 1 uM resiquimod, read-out: mean pEC50 for induction of Interferon-α (converted)
# Method: Assay for the Induction of Interferon-α Using Cryopreserved Human Peripheral Blood Mononuclear Cells (PBMCs)
# Compounds were dissolved in DMSO. Serial 2-fold dilutions with DMSO were prepared and 0.25 μl dispensed into 384-well clear Greiner polypropylene plates.
# Blood samples of up to 200 ml were obtained from healthy human donors. Whole blood in 25 ml volumes was overlaid onto 15 ml Ficoll® gradients in Leucosep® tubes, and centrifuged at 1000 g for 20 min. Cells in the band at the plasma/Histopaque® interface were carefully removed and washed twice with PBS (centrifuged at 400 g for 5 min to harvest). The final pellet was resuspended in freezing medium (90% Heat-inactivated serum, 10% DMSO) to a cell concentration of 4×10^7 cells/ml. The resuspended cells were then cryopreserved (frozen) using a rate controlled freezer, and stored at −140° C. for up to 4 months.
# Immediately prior to assay, vials of cryopreserved (frozen) PBMCs were thawed rapidly in a water bath at 37° C. A 1:10 dilution of the cells in trypan blue was prepared and counted. The PBMCs were then diluted in growth media [RPMI 1640 containing 10% fetal calf serum (invitrogen), Penicillin+[…] (Gibco cat. #25030-024, 1:50), L-Glutamine 2 mM, and 1000 units/ml recombinant human IFN-gamma (Preprotech catalogue #300-02)] to a density of 1×10^6 cells/ml, and 50 ul/well dispensed to 384-well clear Greiner polypropylene plates containing 0.25 μl DMSO or test compound in 0.25 μl DMSO. […] Plates were incubated for 24 h at 37° C. in 5% CO2.
# A multi-isoform immunoassay was used to quantify IFN-α in PBMC supernatants. Rabbit polyclonal antibody against human IFN-α (catalogue number 31101, Stratech Scientific) was diluted 1:10000 in assay buffer (RPMI 1640 containing 10% fetal calf serum, Invitrogen) and 20 μl was added to each well of an MSD® (Meso-Scale® Discovery) single small-spot 384-well GAR (goat anti-rabbit antibody coated) plate.
# The plate was incubated for 1 h at room temperature with vigorous shaking. Following three washes with PBS, 20 μl of cell supernatant were added to each well of the plate. The plate was then incubated for 1 h at room temperature with vigorous shaking. A pair of monoclonal antibodies to IFN-α (catalogue numbers 21100 and 21112, Stratech Scientific) were labelled with sulfo-TAG (MSD®), diluted 1:1000 in assay buffer and 20 μl added to each well of the plate. The plate was further incubated for 1 h at room temperature with vigorous shaking. Following three washes with PBS, 30 μl of ×2 T buffer (MSD®) was added to each well and the plate was read on an MSD® Sector 6000 plate reader.
# Data were normalized to internal plate controls of 1 uM resiquimod (n=16) and DMSO (n=16). pEC50 values were derived by 4-parameter curve fit with IRLS in ActivityBase, from 11-point, two-fold serial dilution of test compounds.
# IFN-α = assay: Induction of Interferon-α using fresh human PBMCs; conditions: PBMC, 24 hr incubation, relative to 2 μM resiquimod control, read-out: mean pEC50 for induction of IFN-α (converted)
# Method: (§1) Assay for the Induction of Interferon-α and TNF-α Using Fresh Human Peripheral Blood Mononuclear Cells (PBMCs)
# (§2) Compounds were dissolved and serially diluted in DMSO to give 100× the required concentration range using a Biomek® 2000. 1 ul of test compound was transferred into 96-well tissue culture plates using a Biomek® FX. Each compound was assayed in duplicate for each donor. Each plate contained a dilution series of the TLR7/8 agonist resiquimod as standard and Column 11 contained 1 μl of 200 μM resiquimod (giving a 2 μM final concentration, used to define the approximate maximal response to resiquimod).
# (§3) Blood samples from two human donors were collected into sodium heparin (10 U/ml). 25 ml volumes of whole blood were overlaid onto 15 mls Histopaque® in LEUCOSEP™ tubes which were centrifuged at 800 g for 20 min and the band at the plasma/histopaque interface carefully removed. The collected cells were centrifuged at 2500 rpm for 10 min and the pellet resuspended in 10 ml of media (RPMI 1640 (Low endotoxin) supplemented with 10% v/v foetal calf serum (FCS, low endotoxin) 100 U/ml penicillin G, 100 μg/ml streptomycin, 10 mM L-glutamine and 1× non-essential amino acids). A 1:20 dilution of the cells was prepared using trypan blue & the cells counted using a haemocytometer. The PBMCs were diluted to give a final concentration of 2×10^6/ml and 100 ul of this cells suspension was added to wells containing 1 μl of diluted test compound.
# (§4) The cell preparations were incubated for 24 hr (37° C., 95% air, 5% CO2) after which a sample of the supernatant was removed using the Biomek® FX and assayed for both IFN-α and TNF-α using the MSD® (Mesoscale Discovery) electrochemiluminescence assay platform. The IFN-α assay was carried out similarly to that described above. The TNF-α assay was carried out as per kit instructions (Cat No K111BHB).
# (§5) Cytokine released was expressed as a percentage of the 2 μM resiquimod control (column 11). This percentage was plotted against compound concentration and the pEC50 for the response determined by non-linear least squares curve fitting. For the IFN-α responses generally a 4 parameter logistic model was selected. For the TNF responses where a clear maximum response was obtained (i.e. a well defined plateau in the response was observed) then a 4 parameter model was generally used. If the upper asymptote of the curve wasn't well defined then the curve fitting was generally constrained to a maximal response of 100% (i.e. to the response to 2 μM resiquimod) or to the response of the highest concentration tested if this was greater than the resiquimod response. Some curves were bell shaped for one or both cytokines and the cytokine data on the down slope of the bell shaped response (i.e. concentrations above those giving the maximal response) were generally excluded from the fit, usually with the exception of the concentration immediately above the peak response. Curve fitting thus concentrated on the up slope of the dose response curve.
# TNF-α = assay: Induction of TNF-α using fresh human PBMCs; conditions: PBMC, 24 hr incubation, relative to 2 μM resiquimod control, read-out: mean pEC50 for induction of TNF-α (converted)
# Method: as §1, §2, §3, §4, §5
EC50 (IFN-α) [µM],EC50 (TNF-α) [µM],SMILES,EC50 (Interferon-α) [µM]
–,–,"Nc1nc(OC2CCCC2)nc2c1[nH]c(=O)n2CCCCN1CCCCC1 [Example 28, 6-Amino-2-(cyclopentyloxy)-9-[4-(1-piperidinyl)butyl]-7,9-dihydro-8H-purin-8-one]",< 3.16
–,–,"CC(C)Oc1nc(N)c2[nH]c(=O)n(CCCCCN3CCCCC3)c2n1 [Example 26, 6-Amino-2-[(1-methylethyl)oxy]-9-[5-(1-piperidinyl)pentyl]-7,9-dihydro-8H-purin-8-one]",< 3.16
≤ 0.01,> 1,"CCCCOc1nc(N)c2[nH]c(=O)n(CCCCCN3CCCCCCC3)c2n1 [Example 12, 6-Amino-2-(butyloxy)-9-[5-(hexahydro-1(2H)-azocinyl)pentyl]-7,9-dihydro-8H-purin-8-one]",< 3.16
–,–,"CCCCOc1nc(N)c2[nH]c(=O)n(CCCN3CCCC3)c2n1 [Example 2, 6-Amino-2-(butyloxy)-9-[3-(1-pyrrolidinyl)propyl]-7,9-dihydro-8H-purin-8-one]",< 3.16
–,–,"CCCC[C@H](C)Oc1nc(N)c2[nH]c(=O)n(CCCCN3CCCCC3)c2n1 [Example 25, 6-Amino-2-{[(1S)-1-methylpentyl]oxy}-9-[4-(1-piperidinyl)butyl]-7,9-dihydro-8H-purin-8-one]",< 3.16
–,–,"Nc1nc(OC2CCCCC2)nc2c1[nH]c(=O)n2CCCCN1CCCCC1 [Example 29, 6-Amino-2-(cyclohexyloxy)-9-[4-(1-piperidinyl)butyl]-7,9-dihydro-8H-purin-8-one]",< 3.16
–,–,"CCCCOc1nc(N)c2[nH]c(=O)n(CCCCCN3CCC3)c2n1 [Example 8, 6-Amino-9-[5-(1-azetidinyl)pentyl]-2-(butyloxy)-7,9-dihydro-8H-purin-8-one]",< 3.16
≤ 0.01,> 1,"CCCCOc1nc(N)c2[nH]c(=O)n(CCCCCN3CCCCC3)c2n1 [Example 10, 6-Amino-2-(butyloxy)-9-[5-(1-piperidinyl)pentyl]-7,9-dihydro-8H-purin-8-one]",< 3.16
≤ 0.001,≥ 0.316,"CCC[C@H](C)Oc1nc(N)c2[nH]c(=O)n(CCCCCN3CCCCCC3)c2n1 [Example 23, 6-Amino-9-[5-(hexahydro-1H-azepin-1-yl)pentyl]-2-{[(1S)-1-methylbutyl]oxy}-7,9-dihydro-8H-purin-8-one]",< 3.16
–,–,"Nc1nc(OC2CCC2)nc2c1[nH]c(=O)n2CCCCN1CCCCC1 [Example 27, 6-Amino-2-(cyclobutyloxy)-9-[4-(1-piperidinyl)butyl]-7,9-dihydro-8H-purin-8-one]",< 3.16
–,–,"CC[C@H](C)Oc1nc(N)c2[nH]c(=O)n(CCCCCN3CCCCC3)c2n1 [Example 33, 6-Amino-2-{[(1S)-1-methylpropyl]oxy}-9-[5-(1-piperidinyl)pentyl]-7,9-dihydro-8H-purin-8-one]",< 3.16
–,–,"CCCCOc1nc(N)c2[nH]c(=O)n(CCCN3CCCCC3)c2n1 [Example 34, 6-Amino-2-(butyloxy)-9-[3-(1-piperidinyl)propyl]-7,9-dihydro-8H-purin-8-one]",< 3.16
–,–,"CCCCNc1nc(N)c2[nH]c(=O)n(CCCN3CCCCC3)c2n1 [Example 16, 6-Amino-2-(butylamino)-9-[3-(1-piperidinyl)propyl]-7,9-dihydro-8H-purin-8-one]",< 3.16
< 0.0316,> 3.16,"CCCCOc1nc(N)c2[nH]c(=O)n(CCCCCN3CCCC3)c2n1 [Example 9, 6-Amino-2-(butyloxy)-9-[5-(1-pyrrolidinyl)pentyl]-7,9-dihydro-8H-purin-8-one]",< 3.16
–,–,"CCC[C@H](C)Nc1nc(N)c2[nH]c(=O)n(CCCCN3CCCCC3)c2n1 [Example 31, 6-Amino-2-{[(1S)-1-methylbutyl]amino}-9-[4-(1-piperidinyl)butyl]-7,9-dihydro-8H-purin-8-one]",< 3.16
–,–,"CC[C@H](C)Oc1nc(N)c2[nH]c(=O)n(CCCCN3CCCCC3)c2n1 [Example 24, 6-Amino-2-{[(1S)-1-methylpropyl]oxy}-9-[4-(1-piperidinyl)butyl]-7,9-dihydro-8H-purin-8-one]",< 3.16
–,–,"CCCCNc1nc(N)c2[nH]c(=O)n(CCCCCN3CCCCCC3)c2n1 [Example 19, 6-Amino-2-(butylamino)-9-[5-(hexahydro-1H-azepin-1-yl)pentyl]-7,9-dihydro-8H-purin-8-one]",< 3.16
≤ 0.001,≥ 0.316,"CCCCOc1nc(N)c2[nH]c(=O)n(CCCCCCN3CCCC3)c2n1 [Example 13, 6-Amino-2-(butyloxy)-9-[6-(1-pyrrolidinyl)hexyl]-7,9-dihydro-8H-purin-8-one]",< 3.16
–,–,"CCCCOc1nc(N)c2[nH]c(=O)n(CCCN3CCCCCC3)c2n1 [Example 3, 6-Amino-2-(butyloxy)-9-[3-(hexahydro-1H-azepin-1-yl)propyl]-7,9-dihydro-8H-purin-8-one]",< 3.16
–,–,"CCCCNc1nc(N)c2[nH]c(=O)n(CCCCN3CCCCC3)c2n1 [Example 17, 6-Amino-2-(butylamino)-9-[4-(1-piperidinyl)butyl]-7,9-dihydro-8H-purin-8-one]",< 3.16
–,–,"CCC[C@@H](C)Nc1nc(N)c2[nH]c(=O)n(CCCCN3CCCCC3)c2n1 [Example 30, 6-Amino-2-{[(1R)-1-methylbutyl]amino}-9-[4-(1-piperidinyl)butyl]-7,9-dihydro-8H-purin-8-one]",< 3.16
–,–,"CCC[C@H](C)Oc1nc(N)c2[nH]c(=O)n(CCCN3CCCCC3)c2n1 [Example 32, 6-Amino-2-{[(1S)-1-methylbutyl]oxy}-9-[3-(1-piperidinyl)propyl]-7,9-dihydro-8H-purin-8-one]",< 3.16
–,–,"CCCCOc1nc(N)c2[nH]c(=O)n(CCCCN3CCC3)c2n1 [Example 4, 6-Amino-9-[4-(1-azetidinyl)butyl]-2-(butyloxy)-7,9-dihydro-8H-purin-8-one]",< 3.16
–,–,"CCCCOc1nc(N)c2[nH]c(=O)n(CCCN3CCC3)c2n1 [Example 1, 6-Amino-9-[3-(1-azetidinyl)propyl]-2-(butyloxy)-7,9-dihydro-8H-purin-8-one]",< 3.16
